Reference: ChEMBL document CHEMBL4033758, “Systematic Data Mining Reveals Synergistic H3R/MCHR1 Ligands” (ACS Med Chem Lett, 2017)

target: Histamine H3 receptor (Homo sapiens, UniProt Q9Y5N1); assay: Displacement of [3H]-N-alpha-methylhistamine from human H3R expressed in HEK293 cell membranes after 90 mins by liquid scintillation counting analysis
Sequence (Q9Y5N1 whole entry): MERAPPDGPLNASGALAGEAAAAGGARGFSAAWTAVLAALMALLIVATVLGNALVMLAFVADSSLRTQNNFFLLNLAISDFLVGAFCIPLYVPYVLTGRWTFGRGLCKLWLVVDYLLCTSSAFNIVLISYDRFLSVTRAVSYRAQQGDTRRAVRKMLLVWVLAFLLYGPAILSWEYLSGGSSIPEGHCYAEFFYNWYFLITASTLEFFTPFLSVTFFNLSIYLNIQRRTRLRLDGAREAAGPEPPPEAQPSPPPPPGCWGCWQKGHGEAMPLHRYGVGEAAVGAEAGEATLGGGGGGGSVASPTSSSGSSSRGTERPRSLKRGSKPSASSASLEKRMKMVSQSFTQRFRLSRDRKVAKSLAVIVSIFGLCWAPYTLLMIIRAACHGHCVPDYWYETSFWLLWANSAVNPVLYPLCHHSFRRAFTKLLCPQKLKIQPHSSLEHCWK

Ki [nM] | Compound
208 | COc1cc(-n2cnc3cc(-c4ccc(Cl)cc4)sc3c2=O)ccc1OCCN1CCCC1
10.6 | CCN1CCN(c2cc(C)c3cc(NC(=O)/C=C/c4ccc(OC)cc4)ccc3n2)CC1
517 | O=c1cc(OCc2ccc(F)cc2)ccn1-c1ccc(OCCN2CCCC2)cc1
